What follows are compounds tested on Endogenous Huntingtin Protein (capture with MW1 (expanded polyglutamine) or MAB2166 antibody) (assay: Endogenous Huntingtin Protein Assay (ELISA-based Meso Scale Discovery electrochemiluminescence assay)). Details: MSD electrochemiluminescence platform.
Format: cell-based
Experimental: Compounds of Formula (I), Formula (II), or Formula (III) were tested using the Meso Scale Discovery (MSD) Assay provided in International Application No. PCT/US2016/066042, filed on Dec. 11, 2016 and claiming priority to U.S. Provisional Application U.S. 62/265,652 filed on Dec. 10, 2015, the entire contents of which are incorporated herein by reference.
The Endogenous Huntingtin Protein assay used in Example 1 was developed using the ELISA-based MSD electrochemiluminescence assay platform.
Meso Scale Discovery (MSD) 96-well or 384-well plates were coated overnight at 4° C. with MW1 (expanded polyglutamine) or MAB2166 monoclonal antibody (for capture) at a concentration of 1 μg/mL in PBS (30 μL per well). Plates were then washed three times with 300 μL wash buffer (0.05% Tween-20 in PBS) and blocked (100 μL blocking buffer; 5% BSA in PBS) for 4-5 hours at room temperature with rotational shaking and then washed three times with wash buffer.
Samples (25 μL) were transferred to the antibody-coated MSD plate and incubated overnight at 4° C. After removal of the lysates, the plate was washed three times with wash buffer, and 25 μL of #5656S (Cell signaling; rabbit monoclonal) secondary antibody (diluted to 0.25 μg/mL in 0.05% Tween-20 in blocking buffer) was added to each well and incubated with shaking for 1 Hour at room temperature. Following incubation with the secondary antibody, the wells were rinsed with wash buffer after which 25 μL of goat anti-rabbit SULFO TAG secondary detection antibody (required aspect of the MSD system) (diluted to 0.25 μg/mL in 0.05% Tween-20 in blocking buffer) was added to each well and incubated with shaking for 1 hour at room temperature. After rinsing three times with wash buffer, 150 μL of read buffer T with surfactant (MSD) were added to each empty well, and the plate was imaged on a SI 6000 imager (MSD) according to manufacturers' instructions provided for 96- or 384-well plates.
With “2-(6-{[(3R,4S)-3-fluoro-2,2,6,6-tetramethylpiperidin-4-yl]oxy}pyridazin-3-yl)-5-(2-methylimidazo[1,2-a]pyrimidin-6-yl)pyridin-3-ol and 2-(6-{[(3S,4R)-3-fluoro-2,2,6,6-tetramethylpiperidin-4-yl]oxy}pyridazin-3-yl)-5-(2-methylimidazo[1,2-a]pyrimidin-6-yl)pyridin-3-ol [Compound 54]” the IC50 was ≤ 100 nM.
In the case of [2H]C([2H])([2H])n1cc(-c2cnc(-c3cnc(N4CCC(NC(C)(C)C)C4)nn3)c(O)c2)cn1 (stereo not shown) [Compound 137, 2-{3-[3-(tert-butylamino)pyrrolidin-1-yl]-1,2,4-triazin-6-yl}-5-[1-(^2H3)methyl-1H-pyrazol-4-yl]pyridin-3-ol], the IC50 is reported as ≤ 100 nM.
In the case of COc1cc(-c2cnc(-c3ccc(N4CCNC(C)C4)nn3)c(O)c2)cc2cn(C)nc12 (stereo not shown) [Compound 95, 5-(7-methoxy-2-methyl-2H-indazol-5-yl)-2-[6-(3-methylpiperazin-1-yl)pyridazin-3-yl]pyridin-3-ol], the IC50 is reported as ≤ 100 nM.
For Cc1cn2nc(-c3cnc(-c4ccc(O[C@@H]5CC(C)(C)NC(C)(C)[C@@H]5F)nn4)c(O)c3)cc(C#N)c2n1.Cc1cn2nc(-c3cnc(-c4ccc(O[C@H]5CC(C)(C)NC(C)(C)[C@H]5F)nn4)c(O)c3)cc(C#N)c2n1 (mixture of isomers) [Compound 68, 6-[6-(6-{[(3R,4S)-3-fluoro-2,2,6,6-tetramethylpiperidin-4-yl]oxy}pyridazin-3-yl)-5-hydroxypyridin-3-yl]-2-methylimidazo[1,2-b]pyridazine-8-carbonitrile and 6-[6-(6-{[(3S,4R)-3-fluoro-2,2,6,6-tetramethylpiperidin-4-yl]oxy}pyridazin-3-yl)-5-hydroxypyridin-3-yl]-2-methylimidazo[1,2-b]pyridazine-8-carbonitrile], the IC50 was ≤ 100 nM.
With Cc1cn2cc(-c3cnc(-c4ccc(N5C[C@@H](C)N[C@@H](C)C5)nn4)c(O)c3)ccc2n1 [Compound 92, 2-{6-[(3R,5S)-3,5-dimethylpiperazin-1-yl]pyridazin-3-yl}-5-(2-methylimidazo[1,2-a]pyridin-6-yl)pyridin-3-ol and 2-{6-[(3S,5R)-3,5-dimethylpiperazin-1-yl]pyridazin-3-yl}-5-(2-methylimidazo[1,2-a]pyridin-6-yl)pyridin-3-ol] the IC50 was ≤ 100 nM.
For Cc1ccc(Nc2cnc(-c3ccc(N4C[C@@H](C)N[C@@H](C)C4)nn3)c(O)c2)cn1 [Compound 125, 2-{6-[(3R,5S)-3,5-dimethylpiperazin-1-yl]pyridazin-3-yl}-5-[(6-methylpyridin-3-yl)amino]pyridin-3-ol], the IC50 was 100 to 500 nM.
With CC1(C)CC(Oc2ccc(-c3ncc(-c4ncco4)cc3O)nn2)CC(C)(C)N1 [Compound 10, 5-(1,3-oxazol-2-yl)-2-{6-[(2,2,6,6-tetramethylpiperidin-4-yl)oxy]pyridazin-3-yl}pyridin-3-ol] the IC50 was ≤ 100 nM.
Compound C[C@@H]1CN(c2ccc(-c3ncc(-c4cn[nH]c4)cc3O)nn2)C[C@H](C)N1 [Compound 86, 2-{6-[(3R,5S)-3,5-dimethylpiperazin-1-yl]pyridazin-3-yl}-5-(1H-pyrazol-4-yl)pyridin-3-ol and 2-{6-[(3S,5R)-3,5-dimethylpiperazin-1-yl]pyridazin-3-yl}-5-(1H-pyrazol-4-yl)pyridin-3-ol] has an IC50 of 100 to 500 nM.
With COc1cc(-c2cnc(-c3ccc(N4C[C@@H](C)N[C@@H](C)C4)nn3)c(O)c2)cc2cn(C)nc12 [Compound 87, 2-{6-[(3R,5S)-3,5-dimethylpiperazin-1-yl]pyridazin-3-yl}-5-(7-methoxy-2-methyl-2H-indazol-5-yl)pyridin-3-ol and 2-{6-[(3S,5R)-3,5-dimethylpiperazin-1-yl]pyridazin-3-yl}-5-(7-methoxy-2-methyl-2H-indazol-5-yl)pyridin-3-ol] the IC50 was ≤ 100 nM.
“5-(2,8-dimethylimidazo[1,2-b]pyridazin-6-yl)-2-(6-{[(3R,4S)-3-fluoro-2,2,6,6-tetramethylpiperidin-4-yl]oxy}pyridazin-3-yl)pyridin-3-ol and 5-(2,8-dimethylimidazo[1,2-b]pyridazin-6-yl)-2-(6-{[(3S,4R)-3-fluoro-2,2,6,6-tetramethylpiperidin-4-yl]oxy}pyridazin-3-yl)pyridin-3-ol [Compound 47]” was tested, and the IC50 was ≤ 100 nM.
CC1(C)C[C@H](Oc2ccc(-c3ncc(-c4cn[nH]c4F)cc3O)nn2)[C@H](F)C(C)(C)N1 (single isomer, unassigned) [Compound 22, 5-(5-fluoro-1H-pyrazol-4-yl)-2-(6-{[(3R,4S)-3-fluoro-2,2,6,6-tetramethylpiperidin-4-yl]oxy}pyridazin-3-yl)pyridin-3-ol or 5-(5-fluoro-1H-pyrazol-4-yl)-2-(6-{[(3S,4R)-3-fluoro-2,2,6,6-tetramethylpiperidin-4-yl]oxy}pyridazin-3-yl)pyridin-3-ol] showed an IC50 of 100 to 500 nM.
In the case of Cn1cc2cc(-c3cnc(-c4ccc(OC5CC(C)(C)NC(C)(C)C5)nn4)c(O)c3)cc(C#N)c2n1 [Compound 62, 5-[6-(6-{[2,2,6,6-tetramethylpiperidin-4-yl]oxy}pyridazin-3-yl)-5-hydroxypyridin-3-yl]-2-methyl-2H-indazole-7-carbonitrile], the IC50 is reported as ≤ 100 nM.
With Cc1cn2cc(-c3cnc(-c4cnc(N5CCN(C)CC5)nn4)c(O)c3)cc(F)c2n1 [Compound 151, 5-(8-fluoro-2-methylimidazo[1,2-a]pyridin-6-yl)-2-[3-(4-methylpiperazin-1-yl)-1,2,4-triazin-6-yl]pyridin-3-ol] the IC50 was ≤ 100 nM.
In the case of CC1(C)CC(Nc2cnc(-c3ncc(-n4nccn4)cc3O)nn2)CC(C)(C)N1 [Compound 163, 2-{6-[(2,2,6,6-tetramethylpiperidin-4-yl)amino]-1,2,4-triazin-3-yl}-5-(2H-1,2,3-triazol-2-yl)pyridin-3-ol], the IC50 is reported as ≤ 100 nM.
CN(c1ncc(-c2ncc(-n3nccn3)cc2O)nn1)C1CC(C)(C)NC(C)(C)C1 [Compound 144, 2-{3-[methyl(2,2,6,6-tetramethylpiperidin-4-yl)amino]-1,2,4-triazin-6-yl}-5-(2H-1,2,3-triazol-2-yl)pyridin-3-ol] was tested, and the IC50 was ≤ 100 nM.
CC(C)(C)N[C@@H]1CCN(c2ccc(-c3ncc(-n4nccn4)cc3O)nn2)C1 [Compound 24, 2-{6-[(3R)-3-(tert-butylamino)pyrrolidin-1-yl]pyridazin-3-yl}-5-(2H-1,2,3-triazol-2-yl)pyridin-3-ol] was tested, and the IC50 was ≤ 100 nM.
For [2H]C([2H])([2H])n1cc(-c2cnc(-c3ccc(O[C@H]4C[C@H](C)NC5(CC5)C4)nn3)c(O)c2)cn1 [Compound 84, 2-(6-{[(5S,7S)-5-methyl-4-azaspiro[2.5]octan-7-yl]oxy}pyridazin-3-yl)-5-[1-(^2H3)methyl-1H-pyrazol-4-yl]pyridin-3-ol], the IC50 was 500 to 1000 nM.
Cn1ccc(-c2cnc(-c3ccc(OC4CC(C)(C)NC(C)(C)C4)nn3)c(O)c2)n1 [Compound 4, 5-(1-methyl-1H-pyrazol-3-yl)-2-{6-[(2,2,6,6-tetramethylpiperidin-4-yl)oxy]pyridazin-3-yl}pyridin-3-ol] was tested, and the IC50 was ≤ 100 nM.
Cn1cc2cc(-c3cnc(-c4ccc(N5CCNCC5)nn4)c(O)c3)cc(F)c2n1 [Compound 93, 5-(7-fluoro-2-methyl-2H-indazol-5-yl)-2-[6-(piperazin-1-yl)pyridazin-3-yl]pyridin-3-ol] was tested, and the IC50 was ≤ 100 nM.
